Series [1] relates to chloroquine-sensitive 3D7 strain of P. falciparum. Description: SYBR green I fluorescence-based antiplasmodial assay, Pf3D7. The conditions noted are these: Plasmodium falciparum. The class given is cell-based. As to the method: (§1) The cytotoxicity assay was performed using the African green monkey normal kidney Vero cells (ATCC CRL 1586) and murine macrophages Raw 264.7 cells (ATCC #TIB-71) obtained from the American Type Culture Collection (ATCC).
(§2) The culture medium was renewed daily to propagate the culture. Thin blood smears were made and stained with 10% Giemsa solution for 10 min and microscopically examined under oil immersion to monitor cell cycle transition and parasitaemia.
(§3) Before each experiment, synchronized ring stage parasites were obtained by 5% sorbitol (w/v) treatment as previously described.
(§4) The parasite susceptibility was determined in 96-well microtitration plates using the SYBR green I fluorescence-based method with some modifications. Briefly, sorbitol-synchronized ring stage parasites (hematocrit: 1.5%, parasitemia: 1%) were incubated in the presence of two-fold diluted extracts (0.78-100 μg/mL, DMSO 0.5%), fractions (0.39-50 μg/mL, DMSO 0.5%) or compounds (0.15-20 μg/mL, DMSO 0.5%). […] Drug-free culture wells in 0.5% DMSO were considered as positive growth controls. After 72 h of incubation, 50 μL of SYBR Green I lysis solution [Tris (20 mM; pH 7.5) (Sigma–Aldrich), EDTA (5 mM) (Sigma–Aldrich), saponin (0.008%, w/v) (Sigma–Aldrich), Triton X-100 (0.08%, v/v) (Sigma–Aldrich) and SYBR Green (2x) (Life technologies)] were added to each well and the plate was incubated in the dark at 37 °C for 30 min. SYBR green I fluorescence was measured using a Fluoroskan Ascent multi-well plate reader (Thermo scientific) with excitation and emission wavelength bands set at 485 and 538 nm, respectively. […] The resistance indices (RI), defined as the ratio of the EC50 of drug-resistant strain to the EC50 of sensitive strain were calculated.
(§5) Microsoft Excel Software was used to calculate the percentage of inhibition. The EC50 and CC50 values for the in vitro antiplasmodial activity were determined by non-linear regression analysis using GraphPad Prism 5.0 Software.

The subject of series [2] is multi-resistant Dd2 strain of P. falciparum. Kind of series: SYBR green I fluorescence-based antiplasmodial assay, PfDd2. It counts as cell-based. Conditions: Plasmodium falciparum. As to the method: as §1, §2, §3, §4, §5
Series [3] deals with chloroquine sensitive strain Pf3D7. Set-up: method as in PMID 18710482. Conditions: read-out: EC50 against chloroquine sensitive strain Pf3D7; cited from earlier work.
Series [4] has as its system resistant strain W2 of P. falciparum. Set-up: method as in PMID 21503279. Conditions: cited from earlier work.
In series [5] the test system is African green monkey normal kidney Vero cells. Description: Resazurin-based cytotoxicity assay, Vero cells. The conditions noted are these: over Vero and Raw 264.7 cells and Pf3D7 and PfDd2 strains. As to the method:
as §1
(§6) The cytotoxicity of active natural products was assessed according to the protocol described by. The African green monkey normal kidney Vero cells (ATCC CRL 1586) and murine macrophages Raw 264.7 cells (ATCC #TIB-71) were maintained in T-25 flasks (Corning Incorporated, USA) using complete Dulbecco’s Modified Eagle’s Medium (Sigma-Aldrich, Germany), supplemented with, 10% Fetal Bovine Serum (Sigma-Aldrich, Germany), 0.2% sodium bicarbonate (w/v) (Sigma-Aldrich, Germany) and 1% (v/v) Penicillin-Streptomycin (Sigma-Aldrich, Germany). The cells were kept at 37 °C for 72 h in 5% CO2 incubator, and the medium was renewed each 72 h and the cell density monitored under the inverted fluorescent microscope Etaluma 520 (Etaluma, USA) until the formation of a monolayer. Confluent culture (nearly 90%) was trypsinized (0.05% Trypsin-EDTA, Sigma-Aldrich, Germany), then centrifuged at 1800 rpm for 5 min and the resulting pellet was re-suspended in culture medium. Cells at 10^4cells per well were seeded (100 μL) in 96-well culture plates (Costar, USA) and incubated overnight to allow cell adhesion. Thereafter, 10 μL of serially diluted extracts, fractions (≤200 μg/mL), and compounds (≤50 μg/mL) were added to plate wells in duplicate. The plates were incubated in a humidified and 5% CO2 atmosphere at 37 °C for 48 h. Podophyllotoxin at 20 μM was added as positive control and wells containing untreated cells were included as 100% growth control. Ten microliters of resazurin stock solution (0.15 mg/mL in sterile PBS), were added to each well, and incubated for an additional 4 h. Fluorescence was then read using a Magelan Infinite M200 fluorescence multi-well plate reader (Tecan) with excitation and emission wavelengths at 530 and 590 nm, respectively. The percentage of cell viability was calculated with regard to the negative control, and subsequently used to determine the concentration that reduced 50% of cell viability (CC50) by non-linear regression using the GraphPad Prism software version 5.0 (San Diego, California) as described above. Selectivity indices (SI = CC50/EC50, defining the balance between cytotoxicity and antiplasmodial activity) were calculated for each test substance.
as §5

A short description of a further series: in vitro. The conditions noted are these: African green monkey. As to the method:
as §1, §6, §5

In a further series the test system is normal human cells TIG-1. Conditions: read-out: 50% lethal concentration (LC50), TIG-1; cited from earlier work.
Series [6] deals with chloroquine resistant strain Pf7G8. Set-up: method as in PMID 18710482. The conditions noted are these: read-out: EC50 against chloroquine resistant strain Pf7G8; cited from earlier work.
Series [7] concerns chloroquine-sensitive strain D10 of P. falciparum. Set-up: method as in PMID 21503279. Conditions: cited from earlier work.
Series [8] deals with chloroquine sensitive poW strain of P. falciparum. Set-up: method as in PMID 12064726. Conditions: read-out: EC50 against chloroquine sensitive poW strain; cited from earlier work.
The next series deals with red blood cells. The conditions noted are these: cited from earlier work.
The next series concerns normal human cells HUVE. Conditions: read-out: 50% lethal concentration (LC50), HUVE; cited from earlier work.
A further series deals with FabI. Set-up: method as in PMID 16722653. The conditions noted are these: enzyme of fatty acid biosynthesis of P. falciparum; read-out: EC50 of FabI inhibition; cited from earlier work.
Series [9] relates to multi-resistant Dd2 strain of P. falciparum. Also noted: method as in PMID 12064726. Conditions: read-out: EC50 against multi-resistant Dd2 strain; cited from earlier work.
The test system of series [10] is human liver cell line Huh7. Conditions: cited from earlier work.
Series [11] in a line: Resazurin-based cytotoxicity assay, Raw 264.7 cells. The conditions noted are these: mouse. As to the method:
as §1
as §6, with “Podophyllotoxin at 20 μM was added as positive control and wells containing untreated cells were included as 100% growth control. Ten microliters of resazurin stock solution (0.15 mg/mL in sterile PBS), were added to each well, and incubated for an additional 4 h.” left out, “The percentage of cell viability was calculated with regard to the negative control, and subsequently used to determine the concentration that reduced 50% of cell viability (CC50) by non-linear regression using the GraphPad Prism software version 5.0 (San Diego, California) as described above.” left out
as §5
In general terms: Resazurin is reduced to fluorescent resorufin, in cell work by metabolically active cells.

A further series concerns P. berghei. Conditions: murine malaria model, cited from earlier work.
A further series deals with Pf3D7. Also noted: method as in PMID 19015351. The conditions noted are these: read-out: antiplasmodial potency Pf3D7; cited from earlier work.
A further series has as its system PfDd2. Set-up: method as in PMID 19015351. The conditions noted are these: read-out: antiplasmodial potency PfDd2; cited from earlier work.
Where [12] appears, read: 3D7, isolated compounds and reference drugs (Table 3), 72 h incubation, read-out: EC50 (μM) Pf3D7.
[13] abbreviates: DD2, isolated compounds and reference drugs (Table 3), 72 h incubation, read-out: EC50 (μM) PfDd2.
Setting [14] is: DD2, 72 h, read-out: EC50 (μM) PfDd2.

Values after ≈ are worked out from the molar mass of the structure shown. Values joined by “and” are separate entries in the source; they are usually repeats but may differ in a detail not shown here. Equal values may be shown once. Read-outs that look alike come from different tables or passages of the source. Bounds are passed on as bounds.

The values below come from article PMC8243547 (BMC Complementary Medicine and Therapies, 2021).

Regarding `C[C@@H]1CC[C@H]2[C@@H](C)C(=O)O[C@@H]3O[C@@]4(C)CC[C@@H]1[C@]32OO4` [Artemisinin, reference compound], the EC50 in [1] (3D7, Table 1 reference drugs, 72 h incubation, read-out: EC50 Pf3D7, reference drugs) was 0.014 ± 0.001 µM; in series [1] (setting [12]), 0.014 ± 0.001 µM; in [2] (DD2, Table 1 reference drugs, 72 h incubation, read-out: EC50 PfDd2, reference drugs), 0.018 ± 0.003 µM; in series [2] (setting [13]), 0.018 ± 0.003 µM.

As for `CCN(CC)CCCC(C)Nc1ccnc2cc(Cl)ccc12` (stereo not drawn) [Chloroquine, reference compound], the EC50 turned out to be 0.018 ± 0.002 µM in series [1] (3D7, 72 h, read-out: EC50 (μM) Pf3D7); 0.018 ± 0.002 µM in series [1] (3D7, 72 h, read-out: EC50 Pf3D7, reference drugs (μM)); 0.449 ± 0.065 µM in [2] (setting [14]); 0.449 ± 0.065 µM in series [2] (DD2, 72 h, read-out: EC50 PfDd2, reference drugs (μM)).

As for `O=c1cc(-c2ccc(O)cc2)oc2cc(O)cc(O)c12` [Compound 1, apigenin], the EC50 in series [3] was 20 ± 3 µM; in series [1] (setting [12]), 19 ± 0.72 µM; in [2] (setting [13]), 16.4 ± 0.52 µM; in series [6], 13 ± 2 µM; in series [8], 19 µM; in the series with FabI, 50 µM. Besides, the EC50 in series [9] was 28.5 µM. Besides, in series [4], the “EC50 against resistant strain W2” value is 20.2 ± 6.4 µg/mL (≈ 74.7 µM). Moreover, in [5], the “SI (selectivity index)” value is on record as “greater than 9”. The CC50 at 48 h (in “in vitro”; in series [11]) was above 185 µM throughout. For the same compound, the CC50 in the series with normal human cells TIG-1 and in the series on normal human cells HUVE was 110 µM each time. In addition, the “EC50 against chloroquine-sensitive strain D10” value in series [7] is 25.4 ± 7.9 µg/mL (≈ 94 µM). In the series on red blood cells, the “membrane disruption on red blood cells, in words” value is given as “no signs”. Also, the “cytotoxicity on Huh7, in words” value in series [10] is listed as “no signs of cytotoxicity”. Moreover, the “suppression of P. berghei parasiteamia” value is recorded as 49.23% in the series with P. berghei (15 mg/kg/day), 50.3% in the series on P. berghei (35 mg/kg/day) and 69.74% with P. berghei (70 mg/kg/day).

`Oc1ccc([C@H]2Oc3cc(O)cc(O)c3C[C@@H]2O)cc1` [Compound 2, afzelechin]: the EC50 in [1] (setting [12]) and in [2] (setting [13]) was above 200 µM in each case.

Take `O=c1c(O)c(-c2ccc(O)cc2)oc2cc(O)cc(O)c12` [Compound 3, kaempferol]: the EC50 in [1] (setting [12]) and in series [2] (setting [13]) was above 200 µM throughout.

As for `C=C(C)[C@@H]1CC[C@]2(C)CC[C@]3(C)C(CCC4[C@@]5(C)C[C@H](O)[C@H](O)C(C)(C)C5CC[C@]43C)C12` (stereo partly drawn) [Compound 4, 2β,3β-dihydroxylup-20-ene], the EC50 in [1] (setting [12]) and in series [2] (setting [14]) was above 200 µM throughout.

Consider `COc1c(O)cc2c(=O)oc3c(OC)c(O)cc4c(=O)oc1c2c34` [Compound 6, 3,3′-O-dimethylellagic acid], for which the EC50 worked out at 4.27 ± 0.05 µM in [1] (setting [12]) and 1.36 ± 0.47 µM in series [2] (setting [13]). In addition, the “SI (selectivity index)” value in series [5] was “greater than 9”. For the same compound, the CC50 at 48 h (in the series “in vitro”; in series [11]) was above 152 µM in each case.

Regarding `COc1cc([C@@H]2c3cc4c(cc3[C@H](O)[C@H]3COC(=O)[C@H]23)OCO4)cc(OC)c1OC` [Podophyllotoxin, reference compound], the CC50 at 48 h is 1.89 µg/mL and 4.56 µM in the series “in vitro”; 0.76 µg/mL and 1.83 µM in series [11].

Turning to `O=c1oc2c(O)c(O)cc3c(=O)oc4c(O)c(O)cc1c4c23` [ellagic acid], the EC50 is 0.819 µM in the series on Pf3D7 and 0.351 µM in the series with PfDd2.
